Activity, IC50 and viability data for 3 molecules are collected here from ChEMBL document CHEMBL5543068, “Mitochondrial targeting derivatives of honokiol enhanced selective antitumor activity in NCI-H446 cells and decreased in vivo toxicity in Caenorhabditis elegans” (Eur J Med Chem, 2024).

The subject of series [1] is NCI-H446. Put plainly: Induction of apoptosis in human NCI-H446 cells assessed as late apoptotic cells at 1 uM incubated for 24 hrs by Annexin V-FITC/PI staining based flow cytometric analysis (reference value: 1.71 %). Format: functional.
The next series concerns HepG2. Put plainly: Antiproliferative activity against human HepG2 cells assessed as reduction in cell viability incubated for 48 hrs by MTT assay. The series is classed as functional, cell-based. The note with it: HepG2, 48 h. (In general: Formazan colour is commonly taken as a measure of viable cells.)
The test system of series [2] is NCI-H446. Put plainly: Induction of apoptosis in human NCI-H446 cells assessed as late apoptotic cells at 0.5 uM incubated for 24 hrs by Annexin V-FITC/PI staining based flow cytometric analysis (reference value: 1.71 %). The series is classed as functional. A general note: A flow cytometer gives signals particle by particle.
The subject of series [3] is NCI-H446. The experiment in a line: Antiproliferative activity against human NCI-H446 cells assessed as reduction in cell viability incubated for 48 hrs by MTT assay. To be noted: NCI-H446, 48 h. The series is classed as functional, cell-based.
Series [4] has as its system NCI-H446. The experiment in a line: Induction of apoptosis in human NCI-H446 cells assessed as necrotic cells at 0.25 uM incubated for 24 hrs by Annexin V-FITC/PI staining based flow cytometric analysis (reference value: 1.17 %). The series is classed as functional.
The subject of series [5] is NCI-H446. Put plainly: Induction of apoptosis in human NCI-H446 cells assessed as necrotic cells at 0.5 uM incubated for 24 hrs by Annexin V-FITC/PI staining based flow cytometric analysis (reference value: 1.17 %). The series is classed as functional.
In series [6] the test system is NCI-H446. Put plainly: Induction of apoptosis in human NCI-H446 cells assessed as viable cells at 1 uM incubated for 24 hrs by Annexin V-FITC/PI staining based flow cytometric analysis (reference value: 96.8 %). The series is classed as functional. The note with it: read-out: Activity.
In the next series the test system is Cell membrane. The experiment in a line: Induction of mitochondrial membrane potential loss in human NCI-H446 cells at 0.25 uM incubated for 24 hrs by JC-1 staining based flow cytometric analysis. The series is classed as cell membranes.
In series [7] the test system is NCI-H446. Put plainly: Induction of apoptosis in human NCI-H446 cells assessed as late apoptotic cells at 0.25 uM incubated for 24 hrs by Annexin V-FITC/PI staining based flow cytometric analysis (reference value: 1.71 %). The series is classed as functional.
Series [8] has as its system NCI-H446. Put plainly: Induction of apoptosis in human NCI-H446 cells assessed as viable cells at 0.5 uM incubated for 24 hrs by Annexin V-FITC/PI staining based flow cytometric analysis (reference value: 96.8 %). The series is classed as functional. The note with it: read-out: Activity.
Series [9] deals with NCI-H446. The experiment in a line: Induction of apoptosis in human NCI-H446 cells assessed as necrotic cells at 2 uM incubated for 24 hrs by Annexin V-FITC/PI staining based flow cytometric analysis (reference value: 1.17 %). The series is classed as functional.
The test system of series [10] is NCI-H446. Put plainly: Induction of apoptosis in human NCI-H446 cells assessed as early apoptotic cells at 1 uM incubated for 24 hrs by Annexin V-FITC/PI staining based flow cytometric analysis (reference value: 0.37 %). Format: functional.
For series [11], the system named is NCI-H446. Put plainly: Induction of apoptosis in human NCI-H446 cells assessed as viable cells at 0.25 uM incubated for 24 hrs by Annexin V-FITC/PI staining based flow cytometric analysis (reference value: 96.8 %). Format: functional. To be noted: read-out: Activity.
Series [12] deals with NCI-H446. Put plainly: Induction of apoptosis in human NCI-H446 cells assessed as early apoptotic cells at 2 uM incubated for 24 hrs by Annexin V-FITC/PI staining based flow cytometric analysis (reference value: 0.37 %). The series is classed as functional.
A short description of series [13]: Cytotoxicity against human HL7702 cells assessed as reduction in cell viability incubated for 48 hrs by MTT assay. The series is classed as toxicity, cell-based. To be noted: HL7702 (L02) cells.
Series [14] concerns NCI-H446. Put plainly: Induction of apoptosis in human NCI-H446 cells assessed as early apoptotic cells at 0.25 uM incubated for 24 hrs by Annexin V-FITC/PI staining based flow cytometric analysis (reference value: 0.37 %). Format: functional.
Series [15] can be described thus: Toxicity in Caenorhabditis elegans assessed as reduction in growth by measuring body length at 20 to 100 uM measured after 72 hrs by […] microscopic analysis. The note with it: dose 20-100 µM.
The subject of series [16] is NCI-H446. The experiment in a line: Induction of apoptosis in human NCI-H446 cells assessed as necrotic cells at 1 uM incubated for 24 hrs by Annexin V-FITC/PI staining based flow cytometric analysis (reference value: 1.17 %). Format: functional.
In series [17] the test system is NCI-H446. The experiment in a line: Induction of ROS production in human NCI-H446 cells assessed as increase in intracellular ROS level at 2 uM incubated for 24 hrs by DCFH-DA staining based flow cytometric analysis. Format: functional, cell-based.
Series [18] is described as follows: Cytotoxicity against HBE (human bronchial epithelial) cells assessed as reduction in cell viability incubated for 48 hrs by MTT assay. Format: toxicity, cell-based.
In series [19] the test system is NCI-H446. The experiment in a line: Induction of apoptosis in human NCI-H446 cells assessed as early apoptotic cells at 0.5 uM incubated for 24 hrs by Annexin V-FITC/PI staining based flow cytometric analysis (reference value: 0.37 %). The series is classed as functional.
Series [20] deals with NCI-H446. The experiment in a line: Induction of apoptosis in human NCI-H446 cells assessed as late apoptotic cells at 2 uM incubated for 24 hrs by Annexin V-FITC/PI staining based flow cytometric analysis (reference value: 1.71 %). The series is classed as functional.
The next series relates to A549. The experiment in a line: Antiproliferative activity against human A549 cells assessed as reduction in cell viability incubated for 48 hrs by MTT assay. The note with it: A549, 48 h. Format: functional, cell-based.
For series [21], the system named is NCI-H446. Put plainly: Induction of apoptosis in human NCI-H446 cells assessed as viable cells at 2 uM incubated for 24 hrs by Annexin V-FITC/PI staining based flow cytometric analysis (reference value: 96.8 %). Format: functional. To be noted: read-out: Activity.
Series [22] is described as follows: Toxicity in Caenorhabditis elegans assessed as reduction in movement speed at 100 uM measured after 72 hrs by […] microscopic analysis.

Each structure is given as a SMILES string. pIC50: −log10 of the molar value. Calls of active or inactive are those of the source. No cut-off for these calls is given here.

What is called pIC50 is −log10 of the IC50, conventionally taken in molar units. For orientation: IC50 means the point on the concentration scale where inhibition reaches its midpoint. With `C=CCc1ccc(O)c(-c2ccc(O)c(CC=C)c2)c1` [HONOKIOL], the Activity in the series on NCI-H446 [1] came out at 12.8%; in the series with NCI-H446 [2], 1.98%; with NCI-H446 [4] it was 2.17%; in the series with NCI-H446 [5] it was 1.53%; in the series on NCI-H446 [7], 2.04%; in the series with NCI-H446 [9], 15.3%. Further, the Activity in the series on NCI-H446 [10] is 1.1%; in the series with NCI-H446 [12] it was 2.61%; in the series with NCI-H446 [14] it was 0.38%; in series [15], “Toxic”; in the series with NCI-H446 [16] it was 12.8%; in the series with NCI-H446 [19], 0.47%. Moreover, the Activity in the series on NCI-H446 [20] is 13%; in series [22], “Toxic”. Further, the pIC50 was 4.38 with HepG2, 4.35 in the series with NCI-H446 [3] and 4.32 with A549. In addition, the viability at 1 µM in the series with NCI-H446 [6] came to 73.3%. The outcome in the series with Cell membrane and in the series on NCI-H446 [17] was inactive. The viability at 0.5 µM in the series on NCI-H446 [8] is 96%. Also, in the series with NCI-H446 [11], the viability at 0.25 µM worked out at 95.4%. In addition, the figures for the IC50 at 48 h in series [13] and in series [18] were 47.9 µM and 43.7 µM, respectively. In addition, the viability at 2 µM with NCI-H446 [21] worked out at 69.1%.
As for `C=CCc1ccc(OCCCCCCOC(=O)Cc2c3[n+](cc4c(OC)c(OC)ccc24)CCc2cc4c(cc2-3)OCO4)c(-c2ccc(OC)c(CC=C)c2)c1`, the pIC50 is 5.62 with HepG2, 5.47 in the series with NCI-H446 [3] and 5.46 in the series on A549. Also, the half-maximal inhibitory concentration (IC50) at 48 h in series [13] was 5.7 µM; in series [18], 7.06 µM.
The matching figures for `C=CCc1ccc(OCCCCCCOC(=O)Cc2c3[n+](cc4c(OC)c(OC)ccc24)CCc2cc4c(cc2-3)OCO4)c(-c2ccc(OCCC)c(CC=C)c2)c1`: 5.74, 5.63, 5.47, 5.7 µM and 7.08 µM.
